This note sets out measurements from the OligoGym collection.

Where “and” joins values, the source holds several entries; their conditions need not be identical. Equal entries are not always repeated. After the bases stand the sugars from the 5' end (letter, count) and the backbone: PS all phosphorothioate, else s phosphorothioate and o phosphodiester by linkage. Methylation of C is not given here. e = 2'-O-(2-methoxyethyl) (MOE); k = constrained ethyl (cEt); d = 2'-deoxy (DNA)

For this data set, the target named is IRF4. Particulars: ASO.

On to AGGCACGGCTTCAGTC (sugars k3 d10 k3, PS), for which the target mRNA inhibition (SK-MEL-28, 4 µM) was determined as 49%. For AGGCAGGGACCGCGCC (sugars k3 d10 k3, PS), the target mRNA inhibition (MM.1R, 1 µM) is -11%. AGGGAACAGATAGTTA (sugars k3 d10 k3, PS): under “SK-MEL-28, 4 µM”, the target mRNA inhibition was determined as 34%. The same measure, in the same setting: the result for AGGGAATCCCTTATTA (sugars k3 d10 k3, PS) reads 6%. AGGGAGCTCATTTTGA (sugars k3 d10 k3, PS): the target mRNA inhibition (MM.1R, 1 µM) was -8%. For the sequence AGGGTCACAGGTAAGG (sugars k3 d10 k3, PS), the target mRNA inhibition (SK-MEL-28, 4 µM) was determined as 68%. Same read-out and setting: to AGGTAAGGGCCCCGTG (sugars k3 d10 k3, PS) belongs 47%. The same measure, in the same setting: the result for AGGTAGTGGCCCCAGC (sugars k3 d10 k3, PS) reads 60%. As for AGGTTCCTGTCACCTG (sugars k3 d10 k3, PS), the target mRNA inhibition (MM.1R, 1 µM) is -7%. AGTACGAGCACATGTC (sugars k3 d10 k3, PS): under “SK-MEL-28, 4 µM”, the target mRNA inhibition turned out to be 34%. Still for that read-out and setting: the result for AGTACTTGGACAGAAG (sugars k3 d10 k3, PS) reads 43%.

Take AGTAGCTGGGCCCTCG (sugars k3 d10 k3, PS): the target mRNA inhibition (SK-MEL-28, 4 µM) turned out to be 62%. Consider “AGTATGAGAAACGGCC (sugars e1 k2 d9 k2 e2, PS)”, for which the target mRNA inhibition (MM.1R, 1 µM) came to 12%. Same read-out and setting: the result for “AGTATGAGAAACGGCC (sugars kkdddddddddkdkdk, PS)” reads 6%. Same read-out and setting: to “AGTATGAGAAACGGCC (sugars kkkddddddddkekek, PS)” belongs 10%.

With AGTCAGACAGTGCGCC (sugars k3 d10 k3, PS), the target mRNA inhibition (SK-MEL-28, 4 µM) was 10%. On to AGTCCTCAAATCTTCA (sugars k3 d10 k3, PS), for which, where the note is “SK-MEL-28, 4 µM”, the target mRNA inhibition is 54%. Take AGTCGCGCAAGTCTAC (sugars k3 d10 k3, PS): the target mRNA inhibition (MM.1R, 1 µM) came out at 0%. On the same count and under the same terms, to “AGTGACTTGCATCCAT (sugars kddddddddddkekek, PS)” belongs 2%; to AGTGAGATGCGGAGGT (sugars k3 d10 k3, PS), 65%; to “AGTGATGTCAGGTTTT (sugars kkdddddddddekeke, PS)”, 33%. On the same count and under the same terms, to “AGTGTCTAAAGTCCCA (sugars k2 d9 e3 k2, PS)” belongs 26% and 12%.

AGTGTCTAAAGTCCCA (sugars k3 d10 k3, PS): the target mRNA inhibition by setting is: (MM.1R, 0.0625 µM) 15%; (MM.1R, 0.25 µM) 34%; (MM.1R, 1 µM) 42% and 58%; (MM.1R, 4 µM) 75%. Turning to “AGTGTCTAAAGTCCCA (sugars kddddddddddkekek, PS)”, the target mRNA inhibition (MM.1R, 1 µM) was -1% and 3%. The same measure, in the same setting: to “AGTGTCTAAAGTCCCA (sugars kkddddddddddkeke, PS)” belongs 32% and 39%; to “AGTGTCTAAAGTCCCA (sugars kkdddddddddkdkdk, PS)”, 14% and -5%. For AGTTAAGGTGCCTCAA (sugars k3 d10 k3, PS), the target mRNA inhibition (SK-MEL-28, 4 µM) is -1%.

For the sequence AGTTCATGTAAAGTCT (sugars k3 d10 k3, PS), the target mRNA inhibition (SK-MEL-28, 4 µM) was 56% and 61%.

With “AGTTCATGTAAAGTCT (sugars kdddddddddkekeke, PS)”, the target mRNA inhibition (MM.1R, 1 µM) was 29% and 10%. Same read-out and setting: the result for “AGTTCATGTAAAGTCT (sugars kkddddddddddkeke, PS)” reads 45% and 49%. AGTTGTAAATGAGTCG (sugars k3 d10 k3, PS): the target mRNA inhibition (SK-MEL-28, 4 µM) is 85%. Take “AGTTGTAAATGAGTCG (sugars kdddddddddkekeke, PS)”: the target mRNA inhibition (MM.1R, 1 µM) came to 47%. Regarding “AGTTGTAAATGAGTCG (sugars kkkdddddddddkeke, PS)”, the target mRNA inhibition was 29% (MM.1R, 0.074 µM); 58% (MM.1R, 0.222 µM); 76% (MM.1R, 0.666 µM); 77% (MM.1R, 1 µM); 90% (MM.1R, 2 µM). Regarding ATAAAGACCTTAACCA (sugars k3 d10 k3, PS), the target mRNA inhibition (SK-MEL-28, 4 µM) turned out to be 27%. Same read-out and setting: to ATAATTGGCACGAGGA (sugars k3 d10 k3, PS) belongs 67%.

For ATACATGTCTGGTTTA (sugars k3 d10 k3, PS), for the setting “MM.1R, 1 µM”, the target mRNA inhibition was 4%. For ATACTGGTTGGTTGGC (sugars k3 d10 k3, PS), the target mRNA inhibition by setting is: (KMS11, 0.2 µM) 74% and 76%; (MM.1R, 0.0625 µM) 51%; (MM.1R, 0.25 µM) 61%; (MM.1R, 1 µM) 69% and 75%; (MM.1R, 4 µM) 86%.

As to ATACTGTAAGGGCTGC (sugars k3 d10 k3, PS), where the note is “SK-MEL-28, 4 µM”, the target mRNA inhibition amounted to 54%. On the same count and under the same terms, to ATAGGAAGTTTACTAA (sugars k3 d10 k3, PS) belongs 13%. The same measure, in the same setting: to ATAGTAAATATCCTGT (sugars k3 d10 k3, PS) belongs 36%. For ATATTCCAACAGGCGG (sugars k3 d10 k3, PS), for the setting “SK-MEL-28, 4 µM”, the target mRNA inhibition worked out at 53%. For ATCAGAAATCACGAGG (sugars k3 d10 k3, PS), the target mRNA inhibition runs as follows: (MM.1R, 0.0625 µM) 2%; (MM.1R, 0.074 µM) -9%; (MM.1R, 0.222 µM) -12%; (MM.1R, 0.25 µM) 1%; (MM.1R, 0.666 µM) -4%; (MM.1R, 1 µM) 6%. Besides, the target mRNA inhibition (MM.1R, 2 µM) amounted to 9%; the target mRNA inhibition (MM.1R, 4 µM) is 36%; the target mRNA inhibition (SK-MEL-28, 4 µM) turned out to be 71%. For ATCCACAATCAGCAAG (sugars k3 d10 k3, PS), the target mRNA inhibition (SK-MEL-28, 4 µM) was 51%.

With ATCCACTGGCACCAAG (sugars k3 d10 k3, PS), the target mRNA inhibition (MM.1R, 1 µM) came out at 5%. Turning to ATCTATAAGATGTATA (sugars k3 d10 k3, PS), the target mRNA inhibition (SK-MEL-28, 4 µM) is -1%.

In the case of ATCTGTATCATGCATA (sugars k3 d10 k3, PS), the target mRNA inhibition (MM.1R, 1 µM) worked out at 24%. For ATCTTCACTGTTAGCT (sugars k3 d10 k3, PS), for the setting “SK-MEL-28, 4 µM”, the target mRNA inhibition is 74%. Still for that read-out and setting: to ATGACGACTTAAGCTA (sugars k3 d10 k3, PS) belongs 62%; to ATGATGTATACCAACG (sugars k3 d10 k3, PS), 86%. Still for that read-out and setting: the result for ATGCAAGCCCGTTAAT (sugars k3 d10 k3, PS) reads 4%; that for ATGCTTGGCTCTGTGG (sugars k3 d10 k3, PS), 76%; that for ATGGAACCCCAAAATC (sugars k3 d10 k3, PS), 24%. On to ATGGAGATACTTGTAC (sugars k3 d10 k3, PS), for which, for the setting “SK-MEL-28, 4 µM”, the target mRNA inhibition amounted to 62%. Same read-out and setting: to ATGGCAGTCTACAGAA (sugars k3 d10 k3, PS) belongs -2%. Turning to ATGGCGAGTTGGCACA (sugars k3 d10 k3, PS), the target mRNA inhibition (MM.1R, 1 µM) is 49% and 48%. On to ATGGCGGATAGATCTG (sugars k3 d10 k3, PS), for which the target mRNA inhibition (SK-MEL-28, 4 µM) stood at 57%. Still for that read-out and setting: the result for ATGTAAGTGATAGGTA (sugars k3 d10 k3, PS) reads 70%; that for ATGTAGGGATACAGCA (sugars k3 d10 k3, PS), 74%. In the case of ATGTGATAGCTGAGCT (sugars k3 d10 k3, PS), the target mRNA inhibition (MM.1R, 1 µM) came out at 26%. Same read-out and setting: the result for “ATGTGATAGCTGAGCT (sugars kddddddddddkekek, PS)” reads -3%. On the same count and under the same terms, to ATGTGTATTACTCTTA (sugars k3 d10 k3, PS) belongs 52% and 49%. On the same count and under the same terms, the result for “ATGTGTATTACTCTTA (sugars kkdddddddddkdkdk, PS)” reads 44% and 32%; that for “ATGTTAGCCAATTCCT (sugars kkdddddddddekeke, PS)”, 27% and 30%; that for “ATGTTAGCCAATTCCT (sugars kkdddddddddkekek, PS)”, 28% and 44%. Consider “ATTATATACTGGTTGG (sugars k2 d9 e3 k2, PS)”, for which the target mRNA inhibition (MM.1R, 1 µM) worked out at 37%.

With ATTCCAAACCTTAAGC (sugars k3 d10 k3, PS), the target mRNA inhibition (MM.1R, 1 µM) is -1%. ATTCCGCGCGCAGAGC (sugars k3 d10 k3, PS): the target mRNA inhibition (MM.1R, 1 µM) is -21%. As to ATTCTCCTCAACCGCT (sugars k3 d10 k3, PS), the target mRNA inhibition (SK-MEL-28, 4 µM) came out at 35%. On to ATTCTTGAATAGAGGA (sugars k3 d10 k3, PS), for which the target mRNA inhibition (MM.1R, 1 µM) worked out at 16%.

Turning to ATTGAAATGGAGCATC (sugars k3 d10 k3, PS), the target mRNA inhibition (SK-MEL-28, 4 µM) is -1%.

Take ATTTATAACCGGTAGA (sugars k3 d10 k3, PS): where the note is “MM.1R, 1 µM”, the target mRNA inhibition amounted to 28%. Regarding ATTTATGCCCTCGCTC (sugars k3 d10 k3, PS), the target mRNA inhibition (SK-MEL-28, 4 µM) worked out at 26%. Same read-out and setting: the result for ATTTTTTGGTTAGTCC (sugars k3 d10 k3, PS) reads 53%; that for CAAAACGGACTGGAAC (sugars k3 d10 k3, PS), 16%. Take CAAAAGGTAGTAGACC (sugars k3 d10 k3, PS): the target mRNA inhibition (MM.1R, 1 µM) was found to be 11%. As to CAAAAGTACCACAGGG (sugars k3 d10 k3, PS), for the setting “SK-MEL-28, 4 µM”, the target mRNA inhibition was 40%.

On to CAAAAGTGCCACAACT (sugars k3 d10 k3, PS), for which the target mRNA inhibition (SK-MEL-28, 4 µM) amounted to 10%.

As for CAAACACTAATACCTA (sugars k3 d10 k3, PS), the target mRNA inhibition (SK-MEL-28, 4 µM) is 31%. Same read-out and setting: the result for CAAACTATAATTGGCA (sugars k3 d10 k3, PS) reads 53%; that for CAAAGACCAGCTTTTT (sugars k3 d10 k3, PS), 50%; that for CAAATTAAAGAGCGCA (sugars k3 d10 k3, PS), 57%. On the same count and under the same terms, the result for CAACTAGCAGGGCACG (sugars k3 d10 k3, PS) reads 38%. The same measure, in the same setting: the result for CAAGAACTGCTGTGTG (sugars k3 d10 k3, PS) reads -5%; that for CAAGACAGGTCTCTAC (sugars k3 d10 k3, PS), 34%; that for CAAGACATAAACCAAG (sugars k3 d10 k3, PS), 51%. As for CAAGACCTAATCTACA (sugars k3 d10 k3, PS), for the setting “SK-MEL-28, 4 µM”, the target mRNA inhibition came to 12%. In the case of CAAGCAGTGATGTCAG (sugars k3 d10 k3, PS), for the setting “MM.1R, 1 µM”, the target mRNA inhibition was 60% and 51%.
